Measurements reported in US6265588A, “Isoxazole and crotonamide derivatives and their use as pharmaceuticals and diagnostics” (Aventis Pharma Deutschland GmbH, priority 1997, dated 2001).
Where a name gives a salt, the structure may show the parent alone.

Legend:
RAW 264.7 cells = experiment: Comparative affinity chromatography of LPS-stimulated, leflunomide-treated RAW 264.7 cytosol extracts; type: cell-based; conditions: RAW 264.7, 10 ng LPS/ml plus 60 μM A 77 1726B, 24 hours; FRACTOGEL column derivatized according to Example 10
Source text: The stimulation of the macrophage cell line RAW 264.7 with lipopolysaccharide was used as an in vitro model for inflammatory processes. Lipopolysaccharide ("LPS") is an essential structural constituent of the outer membrane of Gram-negative bacteria and is recognized as such by immune cells of almost all organisms. In particular, macrophages are activated by LPS stimulation to synthesize a number of cytokines such as TNF-α, IL-1 and IL-6. Potential changes in the protein pattern which accompany this stimulation should be prevented by the simultaneous administration of the immunoregulatory preparation leflunomide.
RAW 264.7 cells were incubated with 10 ng of LPS/ml of culture medium for 24 hours. In the case of LPS-stimulated, leflunomide-treated cells, incubation was simultaneously carried out with 60 μM A 77 1726B for 24 hours. The cells were processed and the cytosolic extracts investigated by affinity chromatography with the aid of the FRACTOGEL® column derivatized according to Example 10. The preparation fractions of these three batches were then applied to an analytical gradient gel and compared with one another.

A20.2.J = experiment: Proliferation test, cell line A20.2.J; type: cell-based; conditions: 72 h, tritium-thymidine incorporation, read-out: concentrations at which a 50% inhibition occurs, A20.2.J
Experimental: (§1) Clicks/RPMI 1640 medium (50:50) with L-glutamine and without NaHCO3 in powder form for 10 l (Seromed, Biochrom, Berlin, FRG), is dissolved in 9 l of double-distilled water and sterile-filtered into bottles each containing 900 ml.
(§2) For keeping tumor cells and hybridoma cells, use medium containing 5% FCS is prepared.
(§3) For keeping cell lines, 900 ml of use medium containing 10% FCS, 10 ml of NEA (non-essential amino acids) solution (Gibco), 10 ml of sodium pyruvate solution (100 mM, Gibco) and 5 ml of 10^-2 M mercaptoethanol are mixed.
(§4) The tumor cells or cell lines used in the test are taken from the stock solution in the logarithmic growth phase, washed twice with wash medium and suspended in the appropriate medium.
(§5) The proliferation test is carried out in round-bottom microtiter plates. Compounds of the formula I and interleukins are dissolved in 50 μl each/hollow of the appropriate medium and the cell count (5×10^5) is adjusted with 100 μl/hollow so that a final volume of 200 μl/hollow results. In all tests, the values are determined four times. Cells without preparations and without growth factor are defined as a negative control and cells without preparation with growth factor afford the values for the positive control. The value of the negative control is subtracted from all values determined and the difference of positive control minus negative control is set at 100%.
(§6) The microtiter plates are incubated at 37° C./5% CO2 for 72 h and the proliferation rate is determined correspondingly as in mitogen-induced lymphocyte proliferation. The cell lines were obtained from the strain collection, American Type Culture Collection ("ATCC").

K562 = experiment: Proliferation test, cell line K562; type: cell-based; conditions: Homo sapiens; cell line K562, 72 h, tritium-thymidine incorporation; read-out: concentrations at which a 50% inhibition occurs, K562
Experimental: as §1, §2, §3, §4
The proliferation test is carried out in round-bottom microtiter plates. Compounds of the formula I and interleukins are dissolved in 50 μl each/hollow of the appropriate medium and the cell count (5×10^5) is adjusted with 100 μl/hollow so that a final volume of 200 μl/hollow results. In all tests, the values are determined four times. […] The value of the negative control is subtracted from all values determined and the difference of positive control minus negative control is set at 100%.
The microtiter plates are incubated at 37° C./5% CO2 for 72 h and the proliferation rate is determined correspondingly as in mitogen-induced lymphocyte proliferation. […]

EL 4 = experiment: Proliferation test, cell line EL 4; type: cell-based; conditions: Mus musculus, EL4; cell line EL 4, 72 h, tritium-thymidine incorporation; read-out: concentrations at which a 50% inhibition occurs, EL 4
Experimental: as §1, §2, §3, §4, §5, §6

Pyruvate kinase DH = experiment: BIAcore binding of dehydrogenases to chip coated with compound of Example 2; conditions: compound immobilised on CM5 chip
Experimental: (§7) The starting material is a CM5 chip from Pharmacia Biosensor having a carboxymethyldextran surface (BIApplication Handbook, Ed. 1994, Merck AB, Uppsala, Sweden). The coupling steps are all carried out at a flow rate of 5 μl/min. All steps are carried out at 25° C. using Hepes buffered saline ("HBS") pH 7.4 as the running buffer.
(§8) 1st step: 35 μl of a 1:1 mixture of 0.05 M NHS (N-hydroxysuccinimide) and 0.2 M EDC (N-ethyl-N'-(dimethylaminopropyl)carbodiimide) in order to activate the chip surface.
(§9) 2nd step: 35 μl of a 40 mM cystamine dihydrochloride solution in 0.1 M sodium borate buffer pH 8.5.
(§10) 3rd step: 35 μl of ethanolamine hydrochloride pH 8.5 to saturate unoccupied matrix structures.
(§11) 4th step: 35 μl of 0.1 M dithiothreitol in 0.1 M sodium borate buffer pH 8.5.
(§12) 5th step: 35 μl of a solution containing compound according to Example 2 (10 mg/ml) in 0.1 M sodium borate buffer pH 7.5.
(§13) The analysis was carried out essentially as described in Current Biology, Vol. 3, No. 12, pages 913-915 (1993).
(§14) System: BIAcore® 2000 with corresponding software, Pharmacia Biosensor AB, Uppsala, Sweden
(§15) Chip: CM5 sensor chip, Pharmacia Biosensor AB
(§16) Coating: according to Example 8
(§17) Running buffer: HBS buffer, BIA certified, Pharmacia Biosensor AB
(§18) Injection: 5 min association phase per 50 μl of the sample to be analyzed.
(§19) Rinsing time: 180 sec 3 min dissociation phase
(§20) Regeneration: 2×15 sec using 0.05% sodium dodecylsulfate
(§21) The term "Resonance Units" is a quantitative unit which is proportional to the amount of protein bound.
(§22) DH represents the enzyme designation dehydrogenase

[1] = molecular target: Glyceraldehyde phosphate DH (Homo sapiens, UniProt P04406); experiment: as above; conditions: compound immobilised on CM5 chip
Experimental: as §7, §8, §9, §10, §11, §12, §13, §14, §15, §16, §17, §18, §19, §20, §21, §22

Dihydroorotate DH = Dihydroorotate DH (Homo sapiens, UniProt Q02127); experiment: as above; conditions: compound immobilised on CM5 chip
Experimental: as §7, §8, §9, §10, §11, §12, §13, §14, §15, §16, §17, §18, §19, §20, §21, §22

dehydrogenases = experiment: BIAcore comparison of relative binding strengths of the dehydrogenases; conditions: protein concentration of 1 μM; compound immobilised on CM5 chip
Experimental: as §13, §14, §15, §16, §17, §18, §19, §20
The relative binding strengths of the dehydrogenases investigated were compared with one another at a defined protein concentration.

Bovine serum albumin = Bovine serum albumin (Bos taurus, UniProt P02769); experiment: BIAcore binding of serum albumin to chip coated with compound of Example 2; conditions: compound immobilised on CM5 chip according to Example 8
Experimental: as §7, §8, §9, §10, §11, §12, §13, §14, §15, §16, §17, §18, §19, §20, §21

Rat serum albumin = Rat serum albumin (Rattus norvegicus, UniProt P02770); experiment: as above; conditions: compound immobilised on CM5 chip according to Example 8
Experimental: as §7, §8, §9, §10, §11, §12, §13, §14, §15, §16, §17, §18, §19, §20, §21

Human serum albumin = Human serum albumin (Homo sapiens, UniProt P02768); experiment: as above; conditions: compound immobilised on CM5 chip according to Example 8
Experimental: as §7, §8, §9, §10, §11, §12, §13, §14, §15, §16, §17, §18, §19, §20, §21

Sheep serum albumin = Sheep serum albumin (Ovis aries, UniProt P14639); experiment: as above; conditions: compound immobilised on CM5 chip according to Example 8
Experimental: as §7, §8, §9, §10, §11, §12, §13, §14, §15, §16, §17, §18, §19, §20, §21

Chicken serum albumin = molecular target: T1, Chicken serum albumin (Gallus gallus, UniProt P19121); experiment: as above; conditions: compound immobilised on CM5 chip according to Example 8
T1 sequence (P19121 24-615): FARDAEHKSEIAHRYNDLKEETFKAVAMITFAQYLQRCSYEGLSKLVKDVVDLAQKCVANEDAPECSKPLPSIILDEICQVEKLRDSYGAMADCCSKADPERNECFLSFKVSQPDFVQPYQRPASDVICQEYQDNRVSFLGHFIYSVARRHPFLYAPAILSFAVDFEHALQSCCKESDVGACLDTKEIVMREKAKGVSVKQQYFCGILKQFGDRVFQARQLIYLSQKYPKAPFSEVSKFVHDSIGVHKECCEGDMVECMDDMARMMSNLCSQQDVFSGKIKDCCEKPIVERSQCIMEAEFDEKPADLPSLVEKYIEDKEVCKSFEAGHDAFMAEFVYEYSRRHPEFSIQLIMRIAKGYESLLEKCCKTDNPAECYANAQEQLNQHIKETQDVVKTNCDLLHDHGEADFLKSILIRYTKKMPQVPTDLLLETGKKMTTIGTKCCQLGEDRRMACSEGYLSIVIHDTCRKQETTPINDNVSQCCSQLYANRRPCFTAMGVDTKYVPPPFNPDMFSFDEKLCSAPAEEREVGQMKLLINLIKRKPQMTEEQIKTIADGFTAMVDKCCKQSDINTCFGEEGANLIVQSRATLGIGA
Experimental: as §7, §8, §9, §10, §11, §12, §13, §14, §15, §16, §17, §18, §19, §20, §21

Mouse serum albumin = Mouse serum albumin (Mus musculus, UniProt P07724); experiment: as above; conditions: compound immobilised on CM5 chip according to Example 8
Experimental: as §7, §8, §9, §10, §11, §12, §13, §14, §15, §16, §17, §18, §19, §20, §21

Donkey serum albumin = Donkey serum albumin (Equus asinus, UniProt Q5XLE4); experiment: as above; conditions: compound immobilised on CM5 chip according to Example 8
Experimental: as §7, §8, §9, §10, §11, §12, §13, §14, §15, §16, §17, §18, §19, §20, §21

Chain of Glyceraldehyde phosphate DH (P04406 whole entry): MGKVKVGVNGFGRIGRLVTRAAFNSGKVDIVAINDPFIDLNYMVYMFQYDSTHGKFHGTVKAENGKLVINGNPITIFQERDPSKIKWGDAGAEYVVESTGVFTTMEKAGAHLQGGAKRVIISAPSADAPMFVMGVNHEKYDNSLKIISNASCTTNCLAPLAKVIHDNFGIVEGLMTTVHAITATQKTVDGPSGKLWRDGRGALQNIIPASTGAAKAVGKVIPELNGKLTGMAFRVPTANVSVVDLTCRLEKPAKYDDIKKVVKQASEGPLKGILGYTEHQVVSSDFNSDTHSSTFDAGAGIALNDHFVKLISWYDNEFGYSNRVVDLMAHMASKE
Chain of Dihydroorotate DH (Q02127 whole entry): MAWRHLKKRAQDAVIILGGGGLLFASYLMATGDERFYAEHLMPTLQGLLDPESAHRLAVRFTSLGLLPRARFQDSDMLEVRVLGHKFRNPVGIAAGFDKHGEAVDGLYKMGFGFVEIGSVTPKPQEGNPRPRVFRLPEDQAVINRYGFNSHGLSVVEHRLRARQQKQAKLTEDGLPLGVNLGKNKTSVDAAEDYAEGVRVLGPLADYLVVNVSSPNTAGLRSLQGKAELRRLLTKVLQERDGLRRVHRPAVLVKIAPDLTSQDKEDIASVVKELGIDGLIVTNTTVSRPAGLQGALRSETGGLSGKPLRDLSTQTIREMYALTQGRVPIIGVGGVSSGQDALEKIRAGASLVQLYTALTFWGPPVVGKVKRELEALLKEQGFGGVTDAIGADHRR
Chain of Donkey serum albumin (Q5XLE4 25-607): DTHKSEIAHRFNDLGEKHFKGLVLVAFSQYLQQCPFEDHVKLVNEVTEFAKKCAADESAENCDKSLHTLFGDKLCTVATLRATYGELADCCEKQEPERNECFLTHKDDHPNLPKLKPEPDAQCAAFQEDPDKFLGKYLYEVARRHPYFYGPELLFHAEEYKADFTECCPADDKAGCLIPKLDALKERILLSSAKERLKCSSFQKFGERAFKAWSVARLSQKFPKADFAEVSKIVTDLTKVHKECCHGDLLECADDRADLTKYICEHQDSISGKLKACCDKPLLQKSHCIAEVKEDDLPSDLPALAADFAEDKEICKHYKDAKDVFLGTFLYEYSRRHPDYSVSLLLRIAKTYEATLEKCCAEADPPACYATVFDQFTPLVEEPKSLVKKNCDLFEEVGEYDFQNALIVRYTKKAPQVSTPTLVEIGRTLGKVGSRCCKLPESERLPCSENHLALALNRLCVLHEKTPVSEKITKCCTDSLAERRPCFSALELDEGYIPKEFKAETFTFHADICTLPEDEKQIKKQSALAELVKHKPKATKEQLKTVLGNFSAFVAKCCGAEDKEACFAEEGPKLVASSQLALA
Chain of Rat serum albumin (P02770 25-608): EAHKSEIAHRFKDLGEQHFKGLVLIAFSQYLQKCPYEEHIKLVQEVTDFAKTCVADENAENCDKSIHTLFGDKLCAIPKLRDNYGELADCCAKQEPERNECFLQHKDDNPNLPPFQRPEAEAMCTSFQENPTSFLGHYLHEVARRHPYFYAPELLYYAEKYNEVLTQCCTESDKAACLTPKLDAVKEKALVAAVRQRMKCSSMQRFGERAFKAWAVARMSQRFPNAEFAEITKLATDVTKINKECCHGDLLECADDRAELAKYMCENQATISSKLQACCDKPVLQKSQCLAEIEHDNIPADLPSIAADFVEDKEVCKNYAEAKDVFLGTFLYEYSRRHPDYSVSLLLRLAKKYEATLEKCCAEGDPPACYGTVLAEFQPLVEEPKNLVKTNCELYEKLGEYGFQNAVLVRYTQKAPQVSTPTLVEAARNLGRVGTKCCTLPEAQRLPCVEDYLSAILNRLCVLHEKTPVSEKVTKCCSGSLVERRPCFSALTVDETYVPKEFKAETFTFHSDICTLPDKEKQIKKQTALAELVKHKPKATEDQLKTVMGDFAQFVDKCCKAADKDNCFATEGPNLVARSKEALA
Chain of Bovine serum albumin (P02769 25-607): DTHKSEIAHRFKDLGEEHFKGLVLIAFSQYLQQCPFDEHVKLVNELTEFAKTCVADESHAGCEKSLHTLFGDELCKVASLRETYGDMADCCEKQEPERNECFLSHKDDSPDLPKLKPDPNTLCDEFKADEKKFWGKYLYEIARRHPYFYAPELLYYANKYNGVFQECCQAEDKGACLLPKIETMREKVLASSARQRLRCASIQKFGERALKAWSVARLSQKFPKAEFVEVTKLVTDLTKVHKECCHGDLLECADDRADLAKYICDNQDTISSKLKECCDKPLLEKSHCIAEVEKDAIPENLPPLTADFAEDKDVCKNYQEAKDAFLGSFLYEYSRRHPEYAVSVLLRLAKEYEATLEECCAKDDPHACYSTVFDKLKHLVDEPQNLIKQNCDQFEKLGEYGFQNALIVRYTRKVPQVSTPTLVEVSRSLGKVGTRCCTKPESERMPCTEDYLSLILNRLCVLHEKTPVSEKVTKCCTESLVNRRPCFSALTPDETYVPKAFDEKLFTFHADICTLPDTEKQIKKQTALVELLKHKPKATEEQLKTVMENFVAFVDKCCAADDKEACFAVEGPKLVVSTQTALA
Chain of Mouse serum albumin (P07724 25-608): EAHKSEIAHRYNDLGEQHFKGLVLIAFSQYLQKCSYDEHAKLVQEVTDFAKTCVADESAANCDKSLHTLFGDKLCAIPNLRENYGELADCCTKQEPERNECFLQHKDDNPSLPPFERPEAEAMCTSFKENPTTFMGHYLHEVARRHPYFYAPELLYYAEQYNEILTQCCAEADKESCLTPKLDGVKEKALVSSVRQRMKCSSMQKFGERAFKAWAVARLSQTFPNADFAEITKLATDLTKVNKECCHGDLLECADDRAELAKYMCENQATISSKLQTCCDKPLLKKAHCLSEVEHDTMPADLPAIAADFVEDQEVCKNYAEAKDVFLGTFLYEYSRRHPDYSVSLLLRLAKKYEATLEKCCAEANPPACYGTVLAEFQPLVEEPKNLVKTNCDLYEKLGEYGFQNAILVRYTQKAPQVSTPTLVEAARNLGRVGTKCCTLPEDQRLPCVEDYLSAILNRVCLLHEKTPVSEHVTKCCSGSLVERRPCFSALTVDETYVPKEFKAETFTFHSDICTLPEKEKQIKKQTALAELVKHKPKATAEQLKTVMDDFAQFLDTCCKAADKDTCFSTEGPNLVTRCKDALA
Chain of Human serum albumin (P02768 25-609): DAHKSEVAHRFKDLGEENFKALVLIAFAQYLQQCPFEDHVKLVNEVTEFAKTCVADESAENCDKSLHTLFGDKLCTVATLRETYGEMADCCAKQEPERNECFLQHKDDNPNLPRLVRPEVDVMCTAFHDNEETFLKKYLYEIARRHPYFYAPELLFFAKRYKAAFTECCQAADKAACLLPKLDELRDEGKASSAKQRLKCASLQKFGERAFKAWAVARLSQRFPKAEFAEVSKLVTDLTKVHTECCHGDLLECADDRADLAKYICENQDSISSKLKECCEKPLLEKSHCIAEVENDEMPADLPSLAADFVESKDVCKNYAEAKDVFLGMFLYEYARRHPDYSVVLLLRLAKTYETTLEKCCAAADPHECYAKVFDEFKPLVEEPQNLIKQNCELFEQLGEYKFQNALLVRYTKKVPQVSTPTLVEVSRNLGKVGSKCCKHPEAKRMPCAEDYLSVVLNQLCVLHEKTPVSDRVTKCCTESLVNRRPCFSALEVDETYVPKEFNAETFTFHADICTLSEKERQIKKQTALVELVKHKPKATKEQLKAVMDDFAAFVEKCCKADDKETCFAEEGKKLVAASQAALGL
Chain of Sheep serum albumin (P14639 25-607): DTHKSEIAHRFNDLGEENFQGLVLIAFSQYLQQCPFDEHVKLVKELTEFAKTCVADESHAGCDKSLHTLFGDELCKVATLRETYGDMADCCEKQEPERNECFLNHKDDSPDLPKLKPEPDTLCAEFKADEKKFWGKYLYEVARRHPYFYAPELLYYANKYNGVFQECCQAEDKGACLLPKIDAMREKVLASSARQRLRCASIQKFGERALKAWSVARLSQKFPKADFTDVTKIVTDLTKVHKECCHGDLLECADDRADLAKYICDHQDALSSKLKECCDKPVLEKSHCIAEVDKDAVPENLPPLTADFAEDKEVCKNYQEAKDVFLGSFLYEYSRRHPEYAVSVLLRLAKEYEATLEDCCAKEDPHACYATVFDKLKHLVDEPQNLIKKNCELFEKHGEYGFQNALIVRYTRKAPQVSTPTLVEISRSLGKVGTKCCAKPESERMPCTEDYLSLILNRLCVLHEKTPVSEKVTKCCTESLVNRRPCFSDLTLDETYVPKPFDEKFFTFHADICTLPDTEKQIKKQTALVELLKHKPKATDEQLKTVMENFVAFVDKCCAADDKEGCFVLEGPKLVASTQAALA

**Q.** With `CC(O)=C(C#N)C(=O)Nc1ccc(C(F)(F)F)cc1` [A 77 1726B, sodium salt of N-(4-trifluoromethylphenyl)-2-cyano-3-hydroxycrotonamide] as the compound, how does the “intensity of band around 35 kDa (malate dehydrogenase) in the preparation fraction” value (RAW 264.7 cells) read?
**A.** markedly increased

**Q.** What does the source list for `Cc1oncc1C(=O)Nc1ccc(NC(=O)CBr)cc1` [Example 1, 5-Methylisoxazole4-carboxylic acid (4-(2-bromoacetylamino)phenyl)amide]?
**A.** IC50 (A20.2.J): 0.8 µM; IC50 (K562): 50 µM; IC50 (EL 4): 0.8 µM

**Q.** Which IC50 (A20.2.J) does the source give for `CC(O)=C(C#N)C(=O)Nc1ccc(NC(=O)CBr)cc1` [Example 2] here?
**A.** 15 µM

**Q.** And the IC50 (K562)?
**A.** 20 µM

**Q.** What about the “Resonance Units, binding of Pyruvate kinase DH” value (Pyruvate kinase DH; enzyme 50 nM) of the same compound?
**A.** 85 Resonance Units

**Q.** And the “Resonance Units, binding of Pyruvate kinase DH” value (Pyruvate kinase DH; enzyme 100 nM)?
**A.** 189 Resonance Units

**Q.** What about the “Resonance Units, binding of Pyruvate kinase DH” value (Pyruvate kinase DH; enzyme 250 nM) of the same compound?
**A.** 505 Resonance Units

**Q.** And the “Resonance Units, binding of Glyceraldehyde phosphate DH” value ([1]; enzyme 25 nM)?
**A.** 69 Resonance Units

**Q.** And the “Resonance Units, binding of Glyceraldehyde phosphate DH” value ([1]; enzyme 50 nM)?
**A.** 148 Resonance Units

**Q.** What about the “Resonance Units, binding of Glyceraldehyde phosphate DH” value ([1]; enzyme 100 nM) of the same compound?
**A.** 297 Resonance Units

**Q.** What about the “Resonance Units, binding of Glyceraldehyde phosphate DH” value ([1]; enzyme 250 nM) of the same compound?
**A.** 603 Resonance Units

**Q.** And the “Resonance Units, binding of Dihydroorotate DH” value (Dihydroorotate DH; enzyme 50 nM)?
**A.** 203 Resonance Units

**Q.** What about the “Resonance Units, binding of Dihydroorotate DH” value (Dihydroorotate DH; enzyme 100 nM) of the same compound?
**A.** 425 Resonance Units

**Q.** And the “Resonance Units, binding of Dihydroorotate DH” value (Dihydroorotate DH; enzyme 250 nM)?
**A.** 1064 Resonance Units

**Q.** And the “relative binding strengths of the dehydrogenases” value (dehydrogenases)?
**A.** the binding of the dihydroorotate DH was the strongest, followed by lactate DH, glyceraldehyde phosphate DH and pyruvate kinase

**Q.** And the IC50 (EL 4)?
**A.** 6 µM

**Q.** What about the “Resonance Units, binding of serum albumin” value (Bovine serum albumin) of the same compound?
**A.** 50 Resonance Units

**Q.** And the “Resonance Units, binding of serum albumin” value (Rat serum albumin)?
**A.** 1061 Resonance Units

**Q.** What about the “Resonance Units, binding of serum albumin” value (Human serum albumin) of the same compound?
**A.** 294 Resonance Units

**Q.** And the “Resonance Units, binding of serum albumin” value (Sheep serum albumin)?
**A.** 331 Resonance Units

**Q.** What about the “Resonance Units, binding of serum albumin” value (Chicken serum albumin) of the same compound?
**A.** 8 Resonance Units

**Q.** And the “Resonance Units, binding of serum albumin” value (Mouse serum albumin)?
**A.** 151 Resonance Units

**Q.** And the “Resonance Units, binding of serum albumin” value (Donkey serum albumin)?
**A.** 480 Resonance Units

**Q.** `CC(O)=C(C#N)C(=O)Nc1ccc(OCCCI)cc1` [Example 5, 2-Cyano-3-hydroxybut-2-enecarboxylic acid (4-(3-iodopropoxy)phenyl)amide] was tested. Which IC50 (A20.2.J) did it give?
**A.** 50 µM

**Q.** What about the IC50 (EL 4) of the same compound?
**A.** 25 µM
